The numbers were not newly measured in patent publication US20240245793A1, “PSD-95 INHIBITORS AND USES THEREOF” (priority 2021, published 2024), which cites them from elsewhere.

One series has as its target PDZ1 and PDZ2 of PSD-95. The following applies: in vitro FP assay; read-out: Ki values towards PDZ1 and PDZ2 of PSD-95; cited from earlier work.
In series [1] the test system is patients with ischemic stroke undergoing endovascular thrombectomy. The following applies: cited from earlier work.
In another series the target is T1, plasmin (Homo sapiens, UniProt P00747).
T1 construct: Tissue plasminogen factor (tPA), which generates plasmin from plasminogen
The conditions noted are these: plasmin generated by tPA; cited from earlier work.

In a further series the test system is pMCAO mice. The conditions noted are these: mice, pMCAO, same experimental conditions and dose (3 nmol/g); cited from earlier work.

pKi: −log10 of the molar value. Like-named read-outs stand apart in the source and are kept apart here. No end group written: not given here.

T1 sequence (P00747 581-810 limits assumed, species assumed): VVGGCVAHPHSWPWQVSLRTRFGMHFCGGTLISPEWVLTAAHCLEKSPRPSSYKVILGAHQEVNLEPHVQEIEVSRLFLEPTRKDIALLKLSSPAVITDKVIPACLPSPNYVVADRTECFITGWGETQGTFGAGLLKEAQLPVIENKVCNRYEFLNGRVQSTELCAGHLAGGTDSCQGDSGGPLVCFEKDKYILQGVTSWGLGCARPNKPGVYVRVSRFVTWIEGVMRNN
T1 sequence (P00747 97-580 partner limits assumed, species assumed): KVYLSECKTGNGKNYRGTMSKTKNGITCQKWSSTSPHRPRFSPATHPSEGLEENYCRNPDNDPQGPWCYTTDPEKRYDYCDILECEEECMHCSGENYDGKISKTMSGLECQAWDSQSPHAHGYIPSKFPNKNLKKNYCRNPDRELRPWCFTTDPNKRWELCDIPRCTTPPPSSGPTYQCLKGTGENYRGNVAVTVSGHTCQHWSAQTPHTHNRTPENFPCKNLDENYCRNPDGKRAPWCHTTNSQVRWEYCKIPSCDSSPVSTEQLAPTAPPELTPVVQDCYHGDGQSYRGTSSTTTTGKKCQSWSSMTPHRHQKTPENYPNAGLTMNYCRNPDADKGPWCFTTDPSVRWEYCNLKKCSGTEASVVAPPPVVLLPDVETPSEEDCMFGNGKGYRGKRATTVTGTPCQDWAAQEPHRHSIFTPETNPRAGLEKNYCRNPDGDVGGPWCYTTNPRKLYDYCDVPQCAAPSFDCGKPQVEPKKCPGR

Broadly, the pKi is the negative decadic logarithm of the Ki, by convention in mol/L. On to YGRKKRRQRRRKLSSIESDV [nerinetide], for which the pKi at PDZ1 and PDZ2 of PSD-95 is 5.00 to 5.30. Further, the clinical effect entry in series [1] (group not receiving alteplase) is “improved functional outcomes, reduced mortality, and reduced infarction volumes”; in series [1] (patients receiving alteplase), “not effective”. The cleavage by plasmin result at plasmin is “cleaves nerinetide”. In addition, the neuroprotective properties entry in the series with pMCAO mice was “did not show significant neuroprotective properties”.
